From PMC8066426 (iScience, 2021)
Blank lines part the entries; values can stand above or below the compound they belong to.

Assays:
CorC (TpCorC) [1] = biological target: T1, CorC (TpCorC) (Thermus parvatiensis, UniProt A0A109QFA5); assay: competitive displacement of mant-ATP; assay type: binding
T1 sequence (A0A109QFA5 207-348): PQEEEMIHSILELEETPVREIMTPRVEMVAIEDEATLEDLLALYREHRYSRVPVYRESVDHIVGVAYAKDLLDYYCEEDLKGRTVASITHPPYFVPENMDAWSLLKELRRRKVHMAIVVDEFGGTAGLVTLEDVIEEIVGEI

CorC (TpCorC) [2] = biological target: T1, CorC (TpCorC); assay: FRET from endogenous Trp to bound mant fluorophore, saturation binding
[3] = biological target: ATP-binding site mutant of the TpCorC cross-linking construct (T106C/C282A/Y255A/T336I) (Thermus parvatiensis); assay: cross-linking
[4] = biological target: TpCorC inter-subunit cross-linking mutant (T106C/C282A) (Thermus parvatiensis); assay: cross-linking

- IC50 (CorC (TpCorC) [1]): 570 ± 80 nM
Compound: Nc1ncnc2c1ncn2[C@@H]1O[C@H](COP(=O)(O)OP(=O)(O)OP(=O)(O)O)[C@@H](O)[C@H]1O [ATP]

- Kd (CorC (TpCorC) [2]): 1360 ± 100 nM
Compound: CNc1ccccc1C(=O)O[C@H]1[C@@H](O)[C@H](n2cnc3c(N)ncnc32)O[C@@H]1CO[P@@](=O)(O)O[P@](=O)(O)OP(=O)(O)O [mant-ATP, 2′(3′)-O-(N-methylanthraniloyl)adenosine 5′-triphosphate]

- stoichiometry N [3]: 2
Compound: ATP-binding site mutant of the TpCorC cross-linking construct (T106C/C282A/Y255A/T336I) (natural protein)

- stoichiometry N [4]: 2
Compound: TpCorC inter-subunit cross-linking mutant (T106C/C282A) (natural protein)
